Tested on: Caco-2 cell homogenates
Assay: Conversion of prodrug to parent compound (astaxanthin) in frozen/thawed unviable Caco-2 cell homogenates
Assay type: in vitro ADME
From the text: Formation of astaxanthin in resuspended Caco-2 cells previously frozen.
Human carboxylesterase 1 (hCE-1) and carboxylesterase 2 (hCE-2) are serine esterases involved in both drug metabolism and activation of prodrugs. The expression pattern of human carboxylesterase in Caco-2 (human colon adenocarcinoma) cell line is similar to human […] that expresses a much higher level of hCE-1 and lower level of hCE-2 (Drug Metab. Pharmacokinet. 21 (3): 173-185 (2006)).
Therefore, the formation of astaxanthin from compounds CCXX, CCXXI, CCXXII and CCXXVI was tested with Caco-2 cells that were frozen at −80° C. and thawed before testing. The freezing/thawing process without cryopreservants compromised the integrity of the membrane, as confirmed by positive staining of the dead cells with a dye exclusion method using trypan blue. Dead cells are not selective to compounds passing through the compromised membrane, eliminating the transport and permeation barriers to access the cell content and metabolic enzymes including the carboxylesterases.
The Caco-2 (colorectal adenocarcinoma) cellular line was obtained from Cordoba Cell Bank (CCB, CIQUIBIC, Cordoba, Argentina), #ATCC Passage: 18. #CCB Passage: 4. Culture conditions: Low Glucose DMEM (1 g/L)+Penicillin-Streptomycin+20% Fetal Bovine Serum (SFB). Cells were cultured in a 37° C. incubator with 5% CO2 on cell culture dishes. Once they reached confluence, cells were washed twice with Phosphate-buffered saline (PBS) and lifted after trypsinization. For trypsinization, 1 mL of trypsin was added, incubated for a few minutes in the 37° C. incubator, neutralized with supplemented culture medium and cells were collected in 15 mL tubes (Falcon). The tubes were centrifuged for 5 min at 1000 rpm, the supernatant was removed, and the cells were resuspended in supplemented medium. To determine the amount of viable (living) cells, a ½ dilution with trypan blue dye was made and counted in an automatic cell counter (more than 90% of live cells were measured). Finally, the tubes were centrifuged again, and cells were resuspended at a concentration of 5 million/mL in non-supplemented DMEM and placed in a −80° C. freezer. To determine the amount of non-viable cells after freezing and thawing, a ½ dilution with trypan blue dye was made and they were counted in an automatic cell counter and the dead cells were above 95%. Pools of unviable (“leaking”) cell homogenates were subsequently used for incubations with the compounds of interest.
A 1 mL frozen aliquot containing 5 million/mL of unviable Caco-2 cells was thawed and warmed at 37° C. A 0.010 mL aliquot of a stock solution of the compound in DMSO (2.5 mM) was added to the cells and incubated at 37 ° C. At selected timepoints, a 0.2 mL aliquot was removed and mixed with 0.5 mL of methanol containing retinyl acetate (0.011 mM) as an internal standard. The methanolic mixture was vigorously vortexed and 1 mL of chloroform was added to extract unreacted compound, astaxanthin and related compounds as well as the internal standard. After vigorous vortexing, the mixture was centrifuged at 8000 rpm for 10 min at 4° C. The chloroform phase was removed and dried under nitrogen flow. 1 mL of the sample solvent (THF/acetonitrile with 1% Formic acid) was added to the residue, mixed vigorously and filtered through a PVDF 0.22 um filter in a HPLC vial. The filtrate was stored in the autosampler at 5° C. and injected in the HPLC to measure the amount of internal standard, unreacted compound, free astaxanthin and its related compounds. The HPLC equipment was a UHPLC Nexera XR (Shimadzu)/PDA SPD-M3OA (Shimadzu) with a Shimpack GIST C18 100×2.1 mm, 2 um column at 40° C. Two HPLC methods were used, gradient and isocratic depending on the prodrug. Gradient method: flow 0.2 mL/m, mobile phase A (MPA): water with formic acid 0.1%, mobile phase B (MPB): acetonitrile with formic acid 0.1%, gradient: time 0 m 60/40, 2.5 m 10/90, 10.4 m 10/90. UV(PDA) detector 380 and 325 nm (for retinyl acetate). […]

[1] = unviable Caco-2 cells 5 million/mL, 37 °C, HPLC

SMILES | Conversion efficiency to trans-astaxanthin (comparison between compounds) [1] | Conversion to trans-astaxanthin [1] | Conversion to astaxanthin monoester (Caco-2) | Stability over the same time frame (Caco-2)
CC1=C(/C=C/C(C)=C/C=C/C(C)=C/C=C/C=C(C)/C=C/C=C(C)/C=C/C2=C(C)C(=O)[C@@H](OC(=O)CNC(=O)c3cccnc3)CC2(C)C)C(C)(C)C[C@H](OC(=O)CNC(=O)c2cccnc2)C1=O [CCXX, (all-E)-3S,3′S-Astaxanthin-di-N-nicotinoglycinate] | higher conversion efficiency to trans-astaxanthin than CCXXI and CCXXII | observed | – | –
CC1=C(/C=C/C(C)=C/C=C/C(C)=C/C=C/C=C(C)/C=C/C=C(C)/C=C/C2=C(C)C(=O)[C@@H](OC(=O)CCNC(=O)c3cccnc3)CC2(C)C)C(C)(C)C[C@H](OC(=O)CCNC(=O)c2cccnc2)C1=O [CCXXI, (all-E)-3S,3′S-astaxanthin-di-N-nicotinoyl-β-alaninate] | – | observed | – | –
CC1=C(/C=C/C(C)=C/C=C/C(C)=C/C=C/C=C(C)/C=C/C=C(C)/C=C/C2=C(C)C(=O)[C@@H](OC(=O)[C@@H](C)NC(=O)c3cccnc3)CC2(C)C)C(C)(C)C[C@H](OC(=O)[C@H](C)NC(=O)c2cccnc2)C1=O [CCXXII] | – | observed | – | –
CC1=C(/C=C/C(C)=C/C=C/C(C)=C/C=C/C=C(C)/C=C/C=C(C)/C=C/C2=C(C)C(=O)[C@@H](OC(=O)[C@H](NC(=O)c3cccnc3)C(C)C)CC2(C)C)C(C)(C)C[C@H](OC(=O)[C@@H](NC(=O)c2cccnc2)C(C)C)C1=O [CCXXVI] | – | – | only a small amount | stable
